Where a name gives a salt, the structure may show the parent alone. Read-outs that look alike come from different tables or passages of the source.
Legend:
[1] = tested on: HIV reverse transcriptase M184V; conditions: cited from earlier work
IL-2 receptor signaling = conditions: high concentrations; cited from earlier work
HIV-1 [2] = conditions: 1-10 μM; cited from earlier work
neutrophil function = conditions: concentrations of up to 10 μM; cited from earlier work
[3] = single 1000 mg dose in a healthy individual; cited from earlier work
HIV-1 IIIb = assay: p24 production by HIV-1 IIIb infected PHA-stimulated PBMCs, Greco interaction model; format: cell-based; conditions: HIV IIIb in PBMCs; for IC50: p24 day 7, Greco model estimate
Description: (§1) Primary PBMCs were separated from whole blood of HIV seronegative donors by density centrifugation over Ficoll-Hypaque (Sigma). The culture medium consisted of RPMI supplemented with 10% fetal bovine serum (FBS), 2 mM glutamine and penicillin/streptomycin (Gibco, Grand Island, N.Y.). For infection studies involving PBMCs, cells were stimulated with 10 μg/mL phytohemagglutinin (PHA; Boehringer Mannheim, Indianapolis, Ind.) and cultured for 3 days. Stimulated PBMCs were infected by incubation with virus at a multiplicity of infection of 1000 TCID50/d10^6 PBMC for 2 hours. PBMC were then washed three times with PBS and cultured in 5% CO2 at 37° C, in RPMI/10% FBS supplemented with 10 units/mL IL-2 (Boehringer Mannheim) and drugs as appropriate. PBMC were seeded in 96-well flat-bottom plates at a density of 2×10^5 PBMC/200 μL. Following three days of culture, half of the medium was replaced with fresh medium containing IL-2 and drugs. After 7 days of culture HIV-1 p24 production in the culture supernatant was assayed by ELISA (Coulter, Hialeah, Fla.).
Additive antiviral effect was analyzed according to the definition of Loewe, using the interaction model of Greco et al. as was described above. This model is fully parametric, and point estimates of the model parameters are obtained in a traditional weighted, nonlinear least-squares approach. The model follows the equation below: [formula]
where α (alpha) is the synergism-antagonism interaction parameter, IC50.1 and IC50.2 are the drug concentrations resulting in 50% inhibition for drug 1 and drug 2, respectively; D1 and D2 are the concentration of drugs tested; Econ is the control effect in the absence of either drug, E is the observed effect , and m 1 and m 2 are the slope parameters for each drug. If the estimate of α is zero, the drug combination is additive; if α is positive, the interaction is synergistic; if α is negative, the interaction is antagonistic. […] That is, if the 95% confidence interval encompasses zero, the interaction is additive. […] This model was implemented using the ADAPT II programs (D'Argenio D. Z, Schumitzky A. ADAPT II: a program package for simulation identification and optimal experimental design. 1990. Biomedical Simulations Resource, Univ. Of Southern California, Los Angeles). Each drug combination was tested in triplicate so as to obtain an estimate of the variance of the effect at different drug concentration combinations.
The combined effect of abacavir and MA was examined in PBMC culture systems. PBMCs from a seronegative donor were stimulated with PHA and infected with the T-cell tropic isolate HIV-1 IIIb. At the clinically utilized dose (600 mg/day) of abacavir steady state peak serum levels are […] (4.47 μM; e.g.,see Ziagen package insert. Glaxo Wellcome, Inc., Research Triangle Park, N.C.). After a single 1000 mg dose of MA in a healthy individual, the mean peak serum level is 56.5 μM. Therefore, infected cells were cultured in the presence of abacavir from 0 to 4 μM, and in the presence of 0 to 1 μM of MA. On day 7 after infection the number of viable cells was determined by MTT assay (Boehringer Mannheim), and p24 antigen in the culture supernatant was measured.
The interaction of abacavir and MA in the suppression of HIV IIIb replication in PBMCs was analyzed using the Greco model as described above. Each data point was determined in triplicate. Each observation was weighted by the inverse of the observation variance. These parameters and their 95% confidence bounds are shown below: […]

PBMC = assay: MTT cell proliferation assay of PBMC cultures; conditions: 0.5 μM MA
Description: Cellular proliferation in culture in the presence or absence of MA and abacavir was measured using a commercial MMT cell proliferation assay, as per the manufacturer's instructions (Boehringer Mannheim).

cellular guanosine pools = assay: addition of deoxynucleosides to the culture media; format: cell-based; conditions: not shown
Text: MA may synergize with abacavir via depletion of cellular guanosine pools, effectively increasing the intracellular concentration of abacavir. However, MA may also act via a general inhibitory effect on T lymphocyte proliferation, as has been hypothesized in the case of hydroxyurea (Lori F., Malykh A. G., Foli A., Maserati R., De Antoni A., Minoli L., Padrini D., Degli Antoni A., Barchi E., Jessen H., Wainberg M. A., Gallo R. C., Lisziewicz J. Combination of a drug targeting the cell with a drug targeting the virus controls human immunodeficiency virus type 1 resistance. AIDS Res Hum Retroviruses 1997; 13(16): 1403-9; De Boer R. J., Boucher C. A., Perelson A. S. Target cell availability and the successful suppression of HIV by hydroxyurea and didanosine. AIDS 1998; 12(13): 1567-70).

HIV-1 [4] = assay: combined effects of MA and available nucleoside analogs (Table 2); format: cell-based
Text: Although MA directly depletes cellular guanosine pools through inhibition of IMPDH, this may result secondarily in perturbations of other cellular enzyme activities. Such perturbations could result in beneficial or detrimental therapeutic effects. The combined effects of MA and available nucleoside analogs are described in Table 2: […]

[5] = biological target: inosine monophosphate dehydrogenase (IMPDH); conditions: literature values; read-out: Ki for IMPDH inhibition; cited from earlier work
Type II isoform of IMPDH = Type II isoform of IMPDH (Homo sapiens, UniProt P12268); conditions: stimulated lymphocytes isoform; cited from earlier work
Wild-type HIV = assay: replication of wild-type HIV-1 in PBMCs, day 7 p24; format: cell-based; conditions: Human immunodeficiency virus 1, PBMC; 4 μM abacavir
Description: as §1

HIV-1 [6] = conditions: monotherapy; cited from earlier work
[7] = tested on: resistant HIV encoding M184V; assay: replication of M184V mutant HIV-1 in PBMCs, day 7 p24; format: cell-based; conditions: Human immunodeficiency virus 1, PBMC, read-out: inhibition of resistant HIV encoding M184V
Description: as §1

For `Nc1ccn([C@@H]2CS[C@H](CO)O2)c(=O)n1` (relative stereo) [3TC, (2R,cis)4-amino-1-(2-hydroxymethyl-1,3-oxathiolan-5-yl)-(1H)-pyrimidin-2-one], the “resistance conferred by M184V” value [1] is listed as “high level resistance”.
For `COc1c(C)c2c(c(O)c1C/C=C(\C)CCC(=O)OCCN1CCOCC1)C(=O)OC2` [MA, 2-morpholinoethyl ester of mycophenolic acid], the “effect on IL-2 receptor signaling” value (IL-2 receptor signaling) is listed as “do not disrupt IL-2 receptor signaling”, the “effect on replication of HIV-1 in vitro” value (HIV-1 [2]) is listed as “inhibit ed the replication” and the “effect on neutrophil function” value (neutrophil function) is listed as “do not inhibit neutrophil function”. The “mean peak serum level” value [3] was 56.5 µM, the “m MA (slope parameter)” value (HIV-1 IIIb; Greco model estimate) was 1.90 and the IC50 (HIV-1 IIIb; read-out: IC50 MA) was 110 nM. The IC50 (HIV-1 IIIb; Human immunodeficiency virus 1, IIIB, PBMC, 168 h, read-out: IC50 MA) was 100 nM, the antiproliferative effect (PBMC) was “modest antiproliferative effect” and the “inhibitory effect of MA after addition of deoxyadenosine” value (cellular guanosine pools) was “no effect”. The “inhibitory effect of MA after addition of deoxyguanosine” value (cellular guanosine pools) was “ablated the inhibitory effect”, the “antiviral effect of MA alone” value (HIV-1 [4]; 0.125 μM MA) was 1.3 and the “antiviral effect of MA alone” value (HIV-1 [4]; 0.5 μM MA) was 9.3.
In the case of `COc1c(C)c2c(c(O)c1C/C=C(\C)CCC(=O)O)C(=O)OC2` [Mycophenolic acid], the Ki [5] is listed as 2 to 10 nM and the “sensitivity of Type II isoform versus the isoform predominant in other cell lineages” value (Type II isoform of IMPDH) is listed as “four times more sensitive”.
In the case of `Nc1nc(NC2CC2)c2ncn([C@H]3C=C[C@@H](CO)C3)c2n1` [abacavir, (1S,cis)-4-[2-amino-6-(cyclopropylamino)-9H-purin-9-yl]-2-cyclopentene-1-methanol sulfate], the inhibition at 4 µM (Wild-type HIV) is listed as 98%, the “drop in plasma HIV-1 RNA” value (HIV-1 [6]) is listed as 1.55 log and the inhibition at 4 µM [7] is listed as 53%. For the same compound, the “m abacavir (slope parameter)” value (HIV-1 IIIb; Greco model estimate) was 0.70, the IC50 (HIV-1 IIIb; read-out: IC50 abacavir) was 630 nM and the IC50 (HIV-1 IIIb; Human immunodeficiency virus 1, IIIB, PBMC, 168 h, read-out: IC50 abacavir) was 626 nM. For the same compound, the “antiviral effect of nucleoside analog alone” value (HIV-1 [4]; 2 μM) was 2.7.
With `OC[C@@H]1CC[C@H](n2cnc3c(O)ncnc32)O1` [didanosine, 2′,3′-dideoxyinosine] the “antiviral effect of nucleoside analog alone” value (HIV-1 [4]; concentration not given) was 11.
In the case of `Cc1cn([C@H]2C=C[C@@H](CO)O2)c(=O)[nH]c1=O` [stavudine, 2′,3′-dihydro-3′-deoxythymidine], the “antiviral effect of nucleoside analog alone” value (HIV-1 [4]; 2 μM) is reported as 115.
For `Nc1ccn([C@H]2CC[C@@H](CO)O2)c(=O)n1` [zalcitibine, 2′,3′-dideoxycytidine], the “antiviral effect of nucleoside analog alone” value (HIV-1 [4]; concentration not given) was 3.9.
In the case of `Cc1cn([C@H]2C[C@H](N=[N+]=[N-])[C@@H](CO)O2)c(=O)[nH]c1=O` [zidovudine, 3′-azido-3′-deoxythymidine], the “antiviral effect of nucleoside analog alone” value (HIV-1 [4]; concentration not given) is reported as 84.
